How the values were obtained:
[1] = molecular target: Tyrosine-protein kinase ABL1 (Homo sapiens) (UniProt P00519); assay: Abl Kinase panel; details: Compound concentration 1.0 uM
[2] = molecular target: Mitogen-activated protein kinase kinase kinase 20 (Homo sapiens) (UniProt Q9NYL2); assay: ZAK Kinase panel; details: Compound concentration 1.0 uM
[3] = molecular target: Tyrosine-protein kinase ITK/TSK (Homo sapiens) (UniProt Q08881); assay: ITK Kinase panel; details: Compound concentration 1.0 uM
[4] = molecular target: Tyrosine-protein kinase receptor UFO (Homo sapiens) (UniProt P30530); assay: Axl Kinase panel; details: Compound concentration 1.0 uM
[5] = molecular target: Interleukin-1 receptor-associated kinase 1 (Homo sapiens) (UniProt P51617); assay: IRAK1 Kinase panel; details: Compound concentration 1.0 uM
[6] = molecular target: Serine/threonine-protein kinase 26 (Homo sapiens) (UniProt Q9P289); assay: MST4 Kinase panel; details: Compound concentration 1.0 uM
Serine/threonine-protein kinase 26 (Homo sapiens), sequence (Q9P289 2-416 limits assumed): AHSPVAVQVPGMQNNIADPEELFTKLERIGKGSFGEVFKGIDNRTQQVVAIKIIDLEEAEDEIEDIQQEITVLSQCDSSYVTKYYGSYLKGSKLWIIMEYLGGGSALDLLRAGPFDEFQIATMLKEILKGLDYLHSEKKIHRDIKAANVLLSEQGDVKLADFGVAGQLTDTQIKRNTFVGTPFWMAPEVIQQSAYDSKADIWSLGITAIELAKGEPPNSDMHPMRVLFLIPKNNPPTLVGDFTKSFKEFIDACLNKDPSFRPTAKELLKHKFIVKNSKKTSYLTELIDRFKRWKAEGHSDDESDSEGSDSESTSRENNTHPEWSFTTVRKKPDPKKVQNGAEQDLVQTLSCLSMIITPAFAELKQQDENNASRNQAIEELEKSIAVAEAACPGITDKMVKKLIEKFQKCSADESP

[7] = molecular target: Tyrosine-protein kinase Fes/Fps (Homo sapiens) (UniProt P07332); assay: Fes Kinase panel; details: Compound concentration 1.0 uM
[8] = molecular target: Fibroblast growth factor receptor 3 (Homo sapiens) (UniProt P22607); assay: FGFR3 Kinase panel; details: Compound concentration 1.0 uM
Fibroblast growth factor receptor 3 (Homo sapiens), sequence (P22607 23-806 limits assumed): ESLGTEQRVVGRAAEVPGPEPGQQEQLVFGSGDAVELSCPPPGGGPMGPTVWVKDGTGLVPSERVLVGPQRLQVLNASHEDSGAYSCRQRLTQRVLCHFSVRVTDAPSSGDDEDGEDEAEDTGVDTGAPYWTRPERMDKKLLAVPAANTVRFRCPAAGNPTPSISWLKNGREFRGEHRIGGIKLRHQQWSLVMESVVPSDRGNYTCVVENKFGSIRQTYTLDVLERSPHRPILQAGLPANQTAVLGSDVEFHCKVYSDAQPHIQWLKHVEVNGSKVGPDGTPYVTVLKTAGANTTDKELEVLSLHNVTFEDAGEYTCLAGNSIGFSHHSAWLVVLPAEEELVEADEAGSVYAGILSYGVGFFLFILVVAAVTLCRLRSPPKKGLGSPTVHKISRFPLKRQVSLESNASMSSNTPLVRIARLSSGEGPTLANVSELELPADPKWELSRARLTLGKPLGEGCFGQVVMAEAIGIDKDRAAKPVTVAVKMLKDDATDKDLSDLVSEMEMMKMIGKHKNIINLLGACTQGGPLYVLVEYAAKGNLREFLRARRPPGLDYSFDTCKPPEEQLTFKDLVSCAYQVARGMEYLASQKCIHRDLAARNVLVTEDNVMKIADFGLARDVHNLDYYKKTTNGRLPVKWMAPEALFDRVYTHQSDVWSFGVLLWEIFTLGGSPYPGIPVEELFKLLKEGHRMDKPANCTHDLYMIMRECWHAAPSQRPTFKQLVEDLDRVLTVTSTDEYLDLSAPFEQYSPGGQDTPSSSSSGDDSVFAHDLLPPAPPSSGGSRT

[9] = molecular target: Cyclin-dependent kinase 7/ cyclin H (Homo sapiens) (UniProt P51946+P50613); assay: CDK7/cyclinH Kinase panel; format: protein-complex assay; details: Compound concentration 1.0 uM
[10] = molecular target: Serine/threonine-protein kinase 16 (Homo sapiens) (UniProt O75716); assay: STK16 Kinase panel; details: Compound concentration 1.0 uM
[11] = molecular target: Activin receptor type-1 (Homo sapiens) (UniProt Q04771); assay: ALK2 Kinase panel; details: Compound concentration 1.0 uM
[12] = molecular target: Calcium/calmodulin-dependent protein kinase type II subunit beta (Homo sapiens) (UniProt Q13554); assay: CaMKII_beta Kinase panel; details: Compound concentration 1.0 uM
[13] = molecular target: Serine/threonine-protein kinase BRSK1 (Homo sapiens) (UniProt Q8TDC3); assay: BrSK1 Kinase panel; details: Compound concentration 1.0 uM
[14] = molecular target: Serine/threonine-protein kinase PLK2 (Homo sapiens) (UniProt Q9NYY3); assay: PLK2 Kinase panel; details: Compound concentration 1.0 uM
[15] = molecular target: Phosphatidylinositol 4,5-bisphosphate 3-kinase catalytic subunit alpha isoform (Homo sapiens) (UniProt P42336); assay: PI3KA Kinase panel; details: Compound concentration 1.0 uM
[16] = molecular target: Receptor-interacting serine/threonine-protein kinase 2 (Homo sapiens) (UniProt O43353); assay: RIPK2 Kinase panel; details: Compound concentration 1.0 uM
[17] = molecular target: Beta-adrenergic receptor kinase 1 (Homo sapiens) (UniProt P25098); assay: GRK2 Kinase panel; details: Compound concentration 1.0 uM
[18] = molecular target: Dual specificity protein kinase CLK4 (Homo sapiens) (UniProt Q9HAZ1); assay: CLK4 Kinase panel; details: Compound concentration 1.0 uM
[19] = molecular target: Serine/threonine-protein kinase mTOR (Homo sapiens) (UniProt P42345); assay: mTOR Kinase panel; details: Compound concentration 1.0 uM
[20] = molecular target: Mitogen-activated protein kinase 11 (Homo sapiens) (UniProt Q15759); assay: p38_beta Kinase panel; details: Compound concentration 1.0 uM
[21] = molecular target: Serine/threonine-protein kinase 25 (Homo sapiens) (UniProt O00506); assay: YSK1 Kinase panel; details: Compound concentration 1.0 uM
[22] = molecular target: Aurora kinase B (Homo sapiens) (UniProt Q96GD4); assay: Aurora_B Kinase panel; details: Compound concentration 1.0 uM
Aurora kinase B (Homo sapiens), sequence (Q96GD4 whole entry): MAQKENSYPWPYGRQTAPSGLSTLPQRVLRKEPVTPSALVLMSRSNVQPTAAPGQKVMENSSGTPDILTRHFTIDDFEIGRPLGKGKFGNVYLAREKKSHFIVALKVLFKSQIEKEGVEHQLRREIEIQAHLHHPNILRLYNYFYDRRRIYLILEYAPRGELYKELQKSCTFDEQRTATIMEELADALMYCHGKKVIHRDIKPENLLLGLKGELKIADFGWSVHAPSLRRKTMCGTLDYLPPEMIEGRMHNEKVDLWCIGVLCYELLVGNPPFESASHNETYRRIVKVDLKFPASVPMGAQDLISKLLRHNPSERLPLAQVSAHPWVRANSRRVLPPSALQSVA

[23] = molecular target: Tyrosine-protein kinase Fgr (Homo sapiens) (UniProt P09769); assay: Fgr Kinase panel; details: Compound concentration 1.0 uM
[24] = molecular target: Tyrosine-protein kinase JAK1 (Homo sapiens, UniProt P23458); assay: NanoBRET assay (JAK1, SGC Frankfurt)
[25] = molecular target: Casein kinase I isoform epsilon (Homo sapiens) (UniProt P49674); assay: CK1_epsilon1 Kinase panel; details: Compound concentration 1.0 uM
[26] = molecular target: STE20-like serine/threonine-protein kinase (Homo sapiens) (UniProt Q9H2G2); assay: SLK Kinase panel; details: Compound concentration 1.0 uM
[27] = molecular target: High affinity nerve growth factor receptor (Homo sapiens, UniProt P04629); assay: NanoBRET assay (NTRK1v2, SGC Frankfurt)
[28] = molecular target: Fibroblast growth factor receptor 4 (Homo sapiens) (UniProt P22455); assay: FGFR4 Kinase panel; details: Compound concentration 1.0 uM
[29] = molecular target: Inhibitor of nuclear factor kappa-B kinase subunit alpha (Homo sapiens) (UniProt O15111); assay: IKK_alpha Kinase panel; details: Compound concentration 1.0 uM
Inhibitor of nuclear factor kappa-B kinase subunit alpha (Homo sapiens), sequence (O15111 whole entry): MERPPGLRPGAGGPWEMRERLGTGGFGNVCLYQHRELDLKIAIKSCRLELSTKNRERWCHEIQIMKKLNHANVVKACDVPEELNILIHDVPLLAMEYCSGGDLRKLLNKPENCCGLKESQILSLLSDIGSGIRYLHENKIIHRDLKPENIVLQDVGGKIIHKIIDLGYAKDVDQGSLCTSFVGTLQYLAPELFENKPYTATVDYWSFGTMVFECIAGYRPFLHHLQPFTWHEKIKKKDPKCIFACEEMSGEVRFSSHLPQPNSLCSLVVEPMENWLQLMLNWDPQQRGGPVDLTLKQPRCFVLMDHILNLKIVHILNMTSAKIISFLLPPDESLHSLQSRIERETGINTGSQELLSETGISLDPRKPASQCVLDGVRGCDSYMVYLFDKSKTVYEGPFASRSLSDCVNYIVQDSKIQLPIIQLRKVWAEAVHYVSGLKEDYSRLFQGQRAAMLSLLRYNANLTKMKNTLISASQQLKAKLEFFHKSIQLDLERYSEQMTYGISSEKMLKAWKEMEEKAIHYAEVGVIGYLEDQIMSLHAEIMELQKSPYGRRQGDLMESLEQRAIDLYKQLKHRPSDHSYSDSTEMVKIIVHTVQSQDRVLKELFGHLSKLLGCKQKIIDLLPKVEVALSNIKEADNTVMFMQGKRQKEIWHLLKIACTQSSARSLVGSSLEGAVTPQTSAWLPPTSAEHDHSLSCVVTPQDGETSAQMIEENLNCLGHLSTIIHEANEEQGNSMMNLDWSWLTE

[30] = molecular target: Ephrin type-A receptor 7 (Homo sapiens) (UniProt Q15375); assay: EphA7 Kinase panel; details: Compound concentration 1.0 uM
[31] = molecular target: Rho-associated protein kinase 1 (Homo sapiens) (UniProt Q13464); assay: ROCK1 Kinase panel; details: Compound concentration 1.0 uM
[32] = molecular target: Serine/threonine-protein kinase NLK (Homo sapiens) (UniProt Q9UBE8); assay: NLK Kinase panel; details: Compound concentration 1.0 uM
[33] = molecular target: Delta-type opioid receptor (Homo sapiens) (UniProt P41143); details: Compound concentration 10.0 uM
[34] = molecular target: Tyrosine-protein kinase Yes (Homo sapiens) (UniProt P07947); assay: Yes Kinase panel; details: Compound concentration 1.0 uM
[35] = molecular target: RAC-alpha serine/threonine-protein kinase (Homo sapiens) (UniProt P31749); assay: AKT1 Kinase panel; details: Compound concentration 1.0 uM
[36] = molecular target: GABA-A receptor; anion channel (Rattus norvegicus) (UniProt O09028+P15431+P18506+P18508+P19969+P20236+P23574+P23576+P28471+P28473+P30191+P62813+P63079+P63138+Q91ZM7+Q9ES14); details: Compound concentration 10.0 uM
[37] = molecular target: Mitogen-activated protein kinase kinase kinase 5 (Homo sapiens) (UniProt Q99683); assay: ASK1 Kinase panel; details: Compound concentration 1.0 uM
[38] = molecular target: Mitogen-activated protein kinase kinase kinase 9 (Homo sapiens) (UniProt P80192); assay: MLK1 Kinase panel; details: Compound concentration 1.0 uM
[39] = molecular target: Protein kinase C zeta type (Homo sapiens) (UniProt Q05513); assay: PKC_zeta Kinase panel; details: Compound concentration 1.0 uM
[40] = molecular target: Ribosomal protein S6 kinase alpha-3 (Homo sapiens) (UniProt P51812); assay: RSK2 Kinase panel; details: Compound concentration 1.0 uM
[41] = molecular target: Tyrosine-protein kinase receptor TYRO3 (Homo sapiens) (UniProt Q06418); assay: Rse Kinase panel; details: Compound concentration 1.0 uM
[42] = molecular target: BDNF/NT-3 growth factors receptor (Homo sapiens) (UniProt Q16620); assay: TrkB Kinase panel; details: Compound concentration 1.0 uM
[43] = molecular target: Tyrosine-protein kinase JAK2 (Homo sapiens, UniProt O60674); assay: NanoBRET assay (JAK2, SGC Frankfurt)
Tyrosine-protein kinase JAK2, sequence (O60674 whole entry): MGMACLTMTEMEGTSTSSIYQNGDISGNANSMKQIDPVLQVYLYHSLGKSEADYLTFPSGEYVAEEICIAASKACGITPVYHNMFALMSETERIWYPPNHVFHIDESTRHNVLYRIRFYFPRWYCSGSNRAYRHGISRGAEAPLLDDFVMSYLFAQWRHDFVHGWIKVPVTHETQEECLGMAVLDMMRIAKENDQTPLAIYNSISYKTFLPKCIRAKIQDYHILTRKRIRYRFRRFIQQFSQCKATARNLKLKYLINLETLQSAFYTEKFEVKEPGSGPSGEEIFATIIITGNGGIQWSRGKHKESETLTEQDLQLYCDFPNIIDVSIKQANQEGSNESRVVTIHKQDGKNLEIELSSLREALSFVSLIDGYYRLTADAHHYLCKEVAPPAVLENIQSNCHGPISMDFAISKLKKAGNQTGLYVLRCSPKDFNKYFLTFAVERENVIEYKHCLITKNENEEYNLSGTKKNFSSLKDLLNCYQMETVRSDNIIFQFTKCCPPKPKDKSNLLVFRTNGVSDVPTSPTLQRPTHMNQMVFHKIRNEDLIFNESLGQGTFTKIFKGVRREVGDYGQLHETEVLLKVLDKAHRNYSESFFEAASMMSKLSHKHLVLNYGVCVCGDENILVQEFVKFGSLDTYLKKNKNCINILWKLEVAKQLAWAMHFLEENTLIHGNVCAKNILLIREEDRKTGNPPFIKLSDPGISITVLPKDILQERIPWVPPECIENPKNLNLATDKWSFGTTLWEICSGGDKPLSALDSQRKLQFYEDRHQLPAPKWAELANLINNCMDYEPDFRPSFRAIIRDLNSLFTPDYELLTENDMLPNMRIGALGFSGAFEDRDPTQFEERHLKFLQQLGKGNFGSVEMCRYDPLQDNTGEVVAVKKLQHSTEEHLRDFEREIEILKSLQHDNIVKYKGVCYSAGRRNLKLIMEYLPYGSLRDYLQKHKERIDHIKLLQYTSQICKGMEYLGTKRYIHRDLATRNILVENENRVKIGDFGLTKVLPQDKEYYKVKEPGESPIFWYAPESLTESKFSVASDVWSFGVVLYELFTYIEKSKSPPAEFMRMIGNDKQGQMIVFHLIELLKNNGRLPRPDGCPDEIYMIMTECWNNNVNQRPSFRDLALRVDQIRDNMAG

[44] = molecular target: Epidermal growth factor receptor (Homo sapiens) (UniProt P00533); assay: EGFR Kinase panel; details: Compound concentration 1.0 uM
[45] = molecular target: Serine/threonine-protein kinase PAK 4 (Homo sapiens) (UniProt O96013); assay: PAK4 Kinase panel; details: Compound concentration 1.0 uM
[46] = molecular target: Protein kinase C beta type (Homo sapiens) (UniProt P05771); assay: PKC_beta1 Kinase panel; details: Compound concentration 1.0 uM
[47] = molecular target: Maternal embryonic leucine zipper kinase (Homo sapiens) (UniProt Q14680); assay: MELK Kinase panel; details: Compound concentration 1.0 uM
[48] = molecular target: Receptor tyrosine-protein kinase erbB-2 (Homo sapiens) (UniProt P04626); assay: ErbB2 Kinase panel; details: Compound concentration 1.0 uM
[49] = molecular target: Receptor tyrosine-protein kinase erbB-4 (Homo sapiens) (UniProt Q15303); assay: ErbB4 Kinase panel; details: Compound concentration 1.0 uM
[50] = molecular target: Activin receptor type-2B (Homo sapiens) (UniProt Q13705); assay: ACVR2B Kinase panel; details: Compound concentration 1.0 uM
[51] = molecular target: Platelet-derived growth factor receptor alpha (Homo sapiens) (UniProt P16234); assay: PDGFR_alpha Kinase panel; details: Compound concentration 1.0 uM
[52] = molecular target: Macrophage-stimulating protein receptor (Homo sapiens) (UniProt Q04912); assay: Ron Kinase panel; details: Compound concentration 1.0 uM
Macrophage-stimulating protein receptor (Homo sapiens), sequence (Q04912 25-304 limits assumed): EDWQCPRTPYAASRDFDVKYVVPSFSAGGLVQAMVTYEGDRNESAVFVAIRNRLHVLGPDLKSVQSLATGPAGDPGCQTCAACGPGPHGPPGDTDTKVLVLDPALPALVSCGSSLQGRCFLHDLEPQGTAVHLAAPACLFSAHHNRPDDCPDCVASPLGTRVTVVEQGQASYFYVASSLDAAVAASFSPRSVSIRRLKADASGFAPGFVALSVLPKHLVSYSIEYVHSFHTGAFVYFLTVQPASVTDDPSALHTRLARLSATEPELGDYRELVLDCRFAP
Macrophage-stimulating protein receptor (Homo sapiens), sequence (Q04912 310-1400 limits assumed): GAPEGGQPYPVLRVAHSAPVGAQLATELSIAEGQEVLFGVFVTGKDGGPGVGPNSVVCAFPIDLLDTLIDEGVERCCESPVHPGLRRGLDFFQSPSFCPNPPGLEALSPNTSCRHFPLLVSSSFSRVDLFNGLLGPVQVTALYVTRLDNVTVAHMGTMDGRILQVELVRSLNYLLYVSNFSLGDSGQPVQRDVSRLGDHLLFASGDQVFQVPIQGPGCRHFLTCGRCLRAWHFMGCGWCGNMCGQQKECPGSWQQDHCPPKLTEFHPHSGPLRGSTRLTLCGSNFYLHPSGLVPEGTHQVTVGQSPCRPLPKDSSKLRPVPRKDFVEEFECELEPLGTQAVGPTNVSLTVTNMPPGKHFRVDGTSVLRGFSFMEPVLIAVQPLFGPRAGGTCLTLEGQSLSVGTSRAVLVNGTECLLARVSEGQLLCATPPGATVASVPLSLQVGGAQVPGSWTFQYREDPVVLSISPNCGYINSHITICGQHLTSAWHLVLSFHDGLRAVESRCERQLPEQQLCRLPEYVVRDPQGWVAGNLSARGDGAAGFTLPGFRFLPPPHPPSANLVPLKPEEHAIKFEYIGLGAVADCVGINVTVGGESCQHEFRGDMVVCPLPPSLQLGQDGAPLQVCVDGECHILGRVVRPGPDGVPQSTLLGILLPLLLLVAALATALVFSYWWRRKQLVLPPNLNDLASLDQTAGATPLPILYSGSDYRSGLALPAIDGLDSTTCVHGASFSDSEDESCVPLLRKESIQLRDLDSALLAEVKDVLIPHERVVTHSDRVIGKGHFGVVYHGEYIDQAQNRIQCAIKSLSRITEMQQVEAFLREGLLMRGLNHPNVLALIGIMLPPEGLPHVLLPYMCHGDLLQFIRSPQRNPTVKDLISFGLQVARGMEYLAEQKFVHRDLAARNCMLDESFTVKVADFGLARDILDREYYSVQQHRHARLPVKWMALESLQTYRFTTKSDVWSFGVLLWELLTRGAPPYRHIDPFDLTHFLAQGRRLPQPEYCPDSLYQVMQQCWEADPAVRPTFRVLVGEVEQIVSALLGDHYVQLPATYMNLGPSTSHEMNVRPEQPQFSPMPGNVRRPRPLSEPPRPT

[53] = molecular target: Serine/threonine-protein kinase 17A (Homo sapiens) (UniProt Q9UEE5); assay: DRAK1 Kinase panel; details: Compound concentration 1.0 uM

CC(C)(O)[C@H](F)CN1Cc2cc(NC(=O)c3cnn4cccnc34)c(N3CCOCC3)cc2C1=O
inhibition [1]: 9.8%
inhibition [2]: 5.5%
inhibition [3]: 21%
inhibition [4]: 17%
inhibition [5]: 64.3%
inhibition [6]: 2%
inhibition [7]: 19%
inhibition [8]: 1.5%
inhibition [9]: 4%
inhibition [10]: 15%
inhibition [11]: 8%
inhibition [12]: -5.5%
inhibition [13]: 3%
inhibition [14]: -3.5%
inhibition [15]: 21.5%
inhibition [16]: 22.5%
inhibition [17]: -3%
inhibition [18]: 47.8%
inhibition [19]: -0%
inhibition [20]: 4%
inhibition [21]: 5%
inhibition [22]: 21.3%
inhibition [23]: 53%
EC50 [24]: > 50 µM (not active)
inhibition [25]: 5.5%
inhibition [26]: 4%
EC50 [27]: 11 µM (not active)
inhibition [28]: -2%
inhibition [29]: 8.5%
inhibition [30]: 20%
inhibition [31]: 5%
inhibition [32]: 7%
inhibition [33]: -7.48%
inhibition [34]: 41.5%
inhibition [35]: 0.5%
inhibition [36]: 18.5%
inhibition [37]: 3.5%
inhibition [38]: 14%
inhibition [39]: 6%
inhibition [40]: 15%
inhibition [41]: 18%
inhibition [42]: 86%
EC50 [43]: > 50 µM (not active)
inhibition [44]: 6.8%
inhibition [45]: 5%
inhibition [46]: 4%
inhibition [47]: 12.5%
inhibition [48]: 1.5%
inhibition [49]: 5%
inhibition [50]: 12.5%
inhibition [51]: 40.5%
inhibition [52]: 2.5%
inhibition [53]: 11.5%

Source: ChEMBL document CHEMBL4879554, “Data for DCP probe GNE-2256” (2021)
